Experimental data taken from ChEMBL document CHEMBL6074707, “Targeting Cancer: A New Era in Cancer Therapy through Immune Fitness Modulation and KRAS Degradation” (ACS Med Chem Lett, 2024).

Assays:
[1] = system: Protein cereblon/GTPase KRas (Homo sapiens), P01116+Q96SW2 [G12D]; test: PROTAC activity at CRBN/KRAS G12D mutant in human ASPC1 cells assessed as induction of protein degradation incubated for 24 hrs by Western blot analysis relative to control; assay type: cell-based
[2] = target: Protein cereblon/GTPase KRas (Homo sapiens, UniProt P01116+Q96SW2, G12D); test: PROTAC activity at CRBN/KRAS G12D mutant in human ASPC1 cells assessed as induction of protein degradation incubated for 24 hrs by Western blot analysis; assay type: cell-based
Sequence of Protein cereblon/GTPase KRas (P01116 whole entry G12D, stated change not applied): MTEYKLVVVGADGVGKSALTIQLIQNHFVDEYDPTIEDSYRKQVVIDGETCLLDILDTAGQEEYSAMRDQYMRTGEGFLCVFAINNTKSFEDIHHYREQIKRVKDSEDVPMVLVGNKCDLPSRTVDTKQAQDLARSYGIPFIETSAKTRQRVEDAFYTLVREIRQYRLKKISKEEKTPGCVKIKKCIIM
Sequence of Protein cereblon/GTPase KRas (Q96SW2 whole entry, stated change not applied): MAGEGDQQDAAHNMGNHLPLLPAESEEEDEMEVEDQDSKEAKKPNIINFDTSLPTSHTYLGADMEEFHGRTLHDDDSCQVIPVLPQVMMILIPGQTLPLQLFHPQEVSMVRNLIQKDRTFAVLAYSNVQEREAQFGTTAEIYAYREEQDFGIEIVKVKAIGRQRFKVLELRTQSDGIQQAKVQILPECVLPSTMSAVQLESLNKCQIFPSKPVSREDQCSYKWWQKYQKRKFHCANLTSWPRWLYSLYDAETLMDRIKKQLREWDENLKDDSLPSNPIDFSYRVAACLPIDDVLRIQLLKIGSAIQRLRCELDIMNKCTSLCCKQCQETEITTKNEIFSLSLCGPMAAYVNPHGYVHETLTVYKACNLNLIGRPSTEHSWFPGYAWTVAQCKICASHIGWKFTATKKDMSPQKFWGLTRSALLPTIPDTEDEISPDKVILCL

Sequence of Protein cereblon/GTPase KRas (Homo sapiens), P01116+Q96SW2 [G12D] (P01116 whole entry G12D): as the sequence (P01116 whole entry G12D, stated change not applied) above
Sequence of Protein cereblon/GTPase KRas (Homo sapiens), P01116+Q96SW2 [G12D] (Q96SW2 whole entry partner): as the sequence (Q96SW2 whole entry, stated change not applied) above

Structure (SMILES) | Emax [1] [%] | DC50 [2] [µM]
C#Cc1c(F)ccc2cc(O)cc(-c3ncc4c(N5CC6CCC(C5)N6)nc(OC[C@]56CCCN5[C@H](CN5CCN(CC7CCN(c8ccc9c(c8)CN(C8CCC(=O)NC8=O)C9=O)CC7)CC5)CC6)nc4c3F)c12 (some centres undefined) | > 70 | ≤ 0.1
C#Cc1c(F)ccc2cc(O)cc(-c3ncc4c(N5C[C@H]6CC[C@@H](C5)N6)nc(OCCN5CCC(CC6CCN(CC7CCN(c8ccc9c(c8)CN(C8CCC(=O)NC8=O)C9=O)CC7)CC6)CC5)nc4c3F)c12 (some centres undefined) | > 70 | ≤ 0.1
C#Cc1c(F)ccc2cc(O)cc(-c3ncc4c(N5C[C@H]6CC[C@@H](C5)N6)nc(OCCN5CCC(C(F)(F)C6CCN(CC7CCN(c8ccc9c(c8F)CN(C8CCC(=O)NC8=O)C9=O)CC7)CC6)CC5)nc4c3F)c12 (some centres undefined) | > 70 | ≤ 0.1
C#Cc1c(F)ccc2cc(O)cc(-c3ncc4c(N5C[C@H]6CC[C@@H](C5)N6)nc(OC[C@@H]5C[C@@H](OC6CCN(c7ccc8c(c7F)CN(C7CCC(=O)NC7=O)C8=O)CC6)CN5C)nc4c3F)c12 (some centres undefined) | > 70 | ≤ 0.1
C#Cc1c(F)ccc2cc(O)cc(-c3ncc4c(N5C[C@H]6CC[C@@H](C5)N6)nc(OCCN5CCC(CN6CCC7(CC6)CCN(c6ccc8c(c6F)CN(C6CCC(=O)NC6=O)C8=O)CC7)CC5)nc4c3F)c12 (some centres undefined) | > 70 | ≤ 0.1
C#Cc1c(F)ccc2cc(O)cc(-c3ncc4c(N5C[C@H]6CC[C@@H](C5)N6)nc(OCCN5CCC(CC6CCN(CC7CCN(c8ccc9c(c8)n(C)c(=O)n9C8CCC(=O)NC8=O)CC7)CC6)CC5)nc4c3F)c12 (some centres undefined) | > 70 | ≤ 0.1
C#Cc1c(F)ccc2cc(O)cc(-c3ncc4c(N5C[C@H]6CC[C@@H](C5)N6)nc(OCCN5CCC(CN6CC7(CCN(c8ccc9c(c8)CN(C8CCC(=O)NC8=O)C9=O)CC7)C6)CC5)nc4c3F)c12 (some centres undefined) | > 70 | ≤ 0.1
C#Cc1c(F)ccc2cc(O)cc(-c3ncc4c(N5C[C@H]6CC[C@@H](C5)N6)nc(OCCN5CCC6(CC5)CCN(CC5CCN(c7ccc8c(c7)CN(C7CCC(=O)NC7=O)C8=O)CC5)CC6)nc4c3F)c12 (some centres undefined) | > 70 | ≤ 0.1
C#Cc1c(F)ccc2cc(O)cc(-c3ncc4c(N5C[C@H]6CC[C@@H](C5)N6)nc(OCCN5CCC(CC6CCN(CC7CCN(c8ccc9c(c8F)CN(C8CCC(=O)NC8=O)C9=O)CC7)CC6)CC5)nc4c3F)c12 (some centres undefined) | > 70 | ≤ 0.1
C#Cc1c(F)ccc2cc(O)cc(-c3ncc4c(N5C[C@H]6CC[C@@H](C5)N6)nc(OCCN5CCC(CN6CCC7(CC6)CCN(c6ccc8c(c6)CN(C6CCC(=O)NC6=O)C8=O)CC7)CC5)nc4c3F)c12 (some centres undefined) | > 70 | ≤ 0.1
C#Cc1c(F)ccc2cc(O)cc(-c3ncc4c(N5C[C@H]6CC[C@@H](C5)N6)nc(OC[C@@H]5C[C@@H](OC6CCN(CC7CCN(c8ccc9c(c8)n(C)c(=O)n9C8CCC(=O)NC8=O)CC7)CC6)CN5C)nc4c3F)c12 (some centres undefined) | > 70 | ≤ 0.1
C#Cc1c(F)ccc2cc(O)cc(-c3ncc4c(N5C[C@H]6CC[C@@H](C5)N6)nc(OCCN5CCC(CC6(F)CCN(CC7CCN(c8ccc9c(c8)CN(C8CCC(=O)NC8=O)C9=O)CC7)CC6)CC5)nc4c3F)c12 (some centres undefined) | 25 | > 1
